Legend:
[1] = system: antibiotic-induced colitis; assay: Antibiotic (clindamycin)-induced colitis in hamsters, in vivo; design: species or system Male Syrian hamsters (LUG); details: for activity in clindamycin-induced colitis: oral
Description: Male Syrian hamsters (LUG), weighing 80 to 120 g, were each given a single dose of 175 mg/kg of clindamycin-phosphate or of clindamycin-hydrochlorideintraperitoneally, to induce colitis. Approximately seven hours after injection, the animals were given the test compound orally or intraperitoneally and the therapy was continued twice a day for a period of four more days. For oral administration, the […] was suspended in water or dissolved in dimethylsulfoxide and delivered to the animals by gavage using an oral intubating needle. The effect of the therapy was measured by use of the Hazard Ratio, which is the ratio of the mortality of the animals treated with the test inhibitor compound contained in a vehicle to the mortality of the animals treated with the vehicle containing none of the test inhibitor compound. The mortality was determined for the test inhibitor compound-treated groups and for the vehicle-treated groups, respectively, twice daily, and was evaluated by comparing the survival curves of each group. The Kaplan-Meier estimate of the survival curve was calculated for each group and the Mantel-Cox (logrank) test was used to compare the survival curve of each test inhibitor compound-treated (therapy) group to that of the corresponding vehicle control group. […]

[2] = system: myeloperoxidase of the rat colon; assay: Acetic acid-induced colitis in rats, in vivo (colonic myeloperoxidase); design: species or system Male rats (Sprague-Dawley); details: oral
From the text: The rat acetic acid-induced colitis biossay has been described by J. E. Krawisz, et al. in Amer. J. Proc. Gastro. Col. Rec. Surg. 31: 11-18 (1980), and by P. Sharon and W. F. Stenson in Gastroenterology 88: 55-63 (1985) and 86: 453-460 (1984). Acetic acid-induced colitis is characterized by the movement of inflammatory cells into the colon, with the number of such cells in the mucosa being measured by the activity of myeloperoxidase, a marker enzyme for these cells. Positive desirable activity is indicated by a reduction in the high levels of myeloperoxidase caused by acetic acid. Male rats (Sprague-Dawley), weighing 150 to 300 g, were pretreated twice daily for two days with either the vehicle (water, or dimethylsulfoxide) or the test inhibitor compound suspended in water or dissolved in dimethylsulfoxide and orally administered. […] Twenty four hours after the acetic acid treatment, the animals were sacrificed, the colonic mucosa was surgically removed and homogenized in an aqueous buffer at pH 6 with a Tissumizer or similar device, and myeloperoxidase was measured in the homogenate using o-phenylenediamine as a chromagen, as described by A. Voller, D. E. Bidwell and A. Bartlett in The Enzyme Linked Immunosorbent Assay (ELISA), Zoological Soc., London, 1979, pages 29-30. […]

[3] = system: guinea pig colon; assay: Carrageenan-induced colitis in guinea pigs, in vivo (water transport in distal colon); design: species or system Male/female guinea pigs (Hartley); details: oral
From the text: The guinea pig carrageenan-induced colitis biossay has been described by A. B. Onderdonk in Inflammatory Bowel Diseases, Martinus Nijhoff Publ., Boston, Mass., pages 126-134 (1982), and in Human Intestinal Microflora in Health and Disease (D. J. Hentger, ed.), Academic Press, New York, 1983, pages 447-479. The polysaccharide iotacarrageenan, derived from red seaweed, produces a colitis in guinea pigs that resembles ulcerative colitis in humans. Male/female guinea pigs (Hartley), weighing 400 to 650 g, were given a 3% solution of degraded carrageenan in their drinking water on a daily basis. After about 7 days, the animals began to develop diarrhea, ceased to gain weight and became lethargic. After the animals received carrageenan in this manner for 14 days, the diarrhea was quantified by measuring the water transport in the distal colon by single pass perfusion using 14C-polyethylene glycol 4000 (PEG 4000) as a marker. Control animals were given an aqueous drinking solution containing 3% mannitol in place of the carrageenan. Simultaneously, randomly selected animals from each of these two groups were treated orally with the test inhibitor compound, twice daily. […]

[4] = system: LTE4; assay: Rat colon mucosa in vitro, short-circuit current: LTE4-induced electrolyte secretion; details: six animals
From the text: (§1) The rat colon mucosa bioassay system is based on the measurement of changes in salt transport across the animal tissue due to absorption or secretion, using the standard short-circuit current technique described by Ussing, et al., Acta Physiol. Scand. 23: 110-127 (1951). Diarrhea is the most common symptom of gastrointestinal inflammation and is present in all types of inflammatory bowel disease. Pantera, et al., Ital. J. Gastroenterol. 13: 24-27 (1981); Sales, et al., Arch. Int. Med. 143: 294-299 (1983); Hodgson, Br. J. Clin. Pharmac. 14: 159-270 (1982). Diarrhea results from decreases in the salt absorption or increases in the salt secretion in the bowel and can be quantified in vitro by the above mentioned method of Ussing et al. In particular, a one-cm segment of colon is removed from animals weighing 200 to 250 g, exposed in vitro to leukotrienes or to bradykinin, which are inducers of salt secretion, and the resulting change in the net salt transport with and without the presence of 6-acetyl-7-[5-(4-acetyl-3 -hydroxy-2-propylphenoxy) pentyloxy]-3,4-dihydro-2H-1-benzopyran-2-carboxylic acid as an inhibitor is measured. Tissues were mounted in pairs in Ussing chambers and short-circuited with automatic voltage clamps (from the University of Iowa Bioengineering Department). A 15-minute period of equilibrium was allowed for the preparation to reach steady state. […]

[5] = system: LTC4; assay: Rat colon mucosa in vitro, short-circuit current: LTC4-induced electrolyte secretion; details: six animals
From the text: as §1

[6] = system: LTD4; assay: Rat colon mucosa in vitro, short-circuit current: LTD4-induced electrolyte secretion; details: six animals
From the text: as §1

[7] = system: LTB4; assay: Rat colon mucosa in vitro, short-circuit current: LTB4-induced electrolyte secretion; details: six animals
From the text: as §1

[8] = 10 mg/kg oral, in 0.15 ml water, >1.0 = prolongs survival vs. vehicle

## CCCc1c(OCC(O)COc2ccc3c(=O)cc(C(=O)O)oc3c2CCC)ccc(C(C)=O)c1O (stereo not drawn) [Comparison 1, 7-[3-(4-acetyl-3-hydroxy-2-propylphenoxy)-2-hydroxypropoxy]-4-oxo-8-propyl-4H-1-benzopyran-2-carboxylic acid, reference compound]
[1]; [8]
  Hazard Ratio: 1.42
[1]; ip, 10 mg/kg
  Hazard Ratio: 2.02
[1]; 10 mg/kg
  activity in clindamycin-induced colitis: inactive

## O=C1CCN(c2ccccc2)N1 [phenidone, reference compound]
[2]; 100 and 200 mg/kg (FIG. 2)
  activity in reducing myeloperoxidase of the rat colon: active

## O=C(O)c1cc(/N=N/c2ccc(S(=O)(=O)Nc3ccccn3)cc2)ccc1O [sulfasalazine, reference compound]
[3]; 100 mg/kg, carrageenan-diseased animals (FIG. 4)
  water transport in the colon: restored the water transport in the colon of the diseased animals from a net secretory level to a level about that of the control animals

## CCCc1c(OCCCOc2ccc3c(=O)cc(CCC(=O)O)oc3c2CCC)ccc(C(C)=O)c1O [Comparison 2, 7-[3-(4-acetyl-3-hydroxy-2-propylphenoxy)propoxy]-4-oxo-8-propyl-4H-1-benzopyran-2-propanoic acid, reference compound]
[1]; 13 mg/kg oral, in 0.15 ml water, >1.0 = prolongs survival vs. vehicle
  Hazard Ratio: 1.68
[1]; 10 mg/kg
  activity in clindamycin-induced colitis: inactive

## CCCc1c(OCCCCCOc2cc3c(cc2C(C)=O)CCC(C(=O)O)O3)ccc(C(C)=O)c1O (racemic) [6-acetyl-7-[5-(4-acetyl-3-hydroxy-2-propylphenoxy)pentyloxy]-3,4-dihydro-2H-1-benzopyran-2-carboxylic acid]
[1]; [8]
  Hazard Ratio: 3.80
[1]; 60 mg/kg intraperitoneal, in 0.075 ml PEG400, >1.0 = prolongs survival vs. vehicle
  Hazard Ratio: 4.77
[1]; 60 mg/kg oral, in 0.15 ml water, >1.0 = prolongs survival vs. vehicle
  Hazard Ratio: 12.0
[1]; 100 mg/kg oral, in 0.15 ml water, >1.0 = prolongs survival vs. vehicle
  Hazard Ratio: 64.2
[1]; 60 or 100 mg/kg
  edema, hemorrhaging, congestion, necrosis, focal erosions, inflammatory cell infiltration of cecum (and colon): In most cases these effects were reduced or abolished
[1]; clindamycin-treated hamsters
  diarrhea: reduced the diarrhea
  histopathology of the cecum and colon: substantially benefited the histopathology of the cecum and colon
  survival of clindamycin-treated animals: prolonging the survival
[1]; ip, 10 mg/kg
  Hazard Ratio: 2.87
[1]; doses ranging from 10 to 100 mg/kg
  activity in clindamycin-induced colitis: active
[2]; 30 and 90 mg/kg (FIG. 3)
  activity in reducing myeloperoxidase of the rat colon: active
[4]; 1 μM inhibitor
  % Inhibition Against Leukotrienes, LTE4: 29.8 ± 15.0%
[4]; 10 μM inhibitor
  % Inhibition Against Leukotrienes, LTE4: 44.2 ± 9.8%
[3]; 10 and 30 mg/kg, carrageenan-diseased animals (FIG. 5)
  water transport rate in the colon: water transport rates about equal to that of the control animals
[5]; 1 μM inhibitor
  % Inhibition Against Leukotrienes, LTC4: 9.5 ± 19.2%
[5]; 10 μM inhibitor
  % Inhibition Against Leukotrienes, LTC4: 57.1 ± 19.7%
[6]; 1 μM inhibitor
  % Inhibition Against Leukotrienes, LTD4: 30.8 ± 15.4%
[6]; 10 μM inhibitor
  % Inhibition Against Leukotrienes, LTD4: 62.4 ± 10.0%
[7]; 1 μM inhibitor
  % Inhibition Against Leukotrienes, LTB4: 44.4 ± 13.1%
[7]; 10 μM inhibitor
  % Inhibition Against Leukotrienes, LTB4: 69.6 ± 11.9%

From US5112856A, “Therapeutic treatment of intestinal inflammation by administration of 3,4-dihydro-2H-1-benzopyran derivatives” (Hoffmann-La Roche Inc., priority 1990, dated 1992)
